According to patent publication US20100179130A1, “USE OF PIPERINE AND DERIVATIVES THEREOF FOR THE THERAPY OF NEUROLOGICAL CONDITIONS” (SYNGIS Bioscience GmbH & Co. KG, priority 2007, published 2010):

Experiments:
[1] = test system: motoneural cell line NSC-34; assay: Anti-apoptosis assay on motoneural cell line, staurosporine induced apoptosis, Caspase-Glo 3/7; assay type: cell-based; conditions: compound 1 μM in the presence of staurosporine 0.1 μM
Method: Instead of the SH-SY5Y cells used in Example 3 and 4, this analysis was performed with motoneural cell line NSC-34. […] Incubation with staurosporine (SP; 0.1 μM) alone served as positive control and incubation with vehicle served as negative control. The degree of apoptosis relative to the staurosporine control is shown in FIG. 4 (vehicle (sham): 6%; staurosporine (SP): 100%; piperine plus staurosporine: 70%; derivative B plus staurosporine: 55%; derivative E plus staurosporine: 75%; derivative G plus staurosporine: 76%; derivative K plus staurosporine: 83%; derivative S plus staurosporine: 77%; derivative U plus staurosporine: 71%).

[2] = test system: SH-SY5Y neuronal cells; assay: In vitro anti-apoptosis assay, staurosporine induced apoptosis, Caspase-Glo 3/7; assay type: cell-based, human
[3] = test system: carageenan-induced rat paw edema; conditions: in vivo; cited from earlier work
[4] = test system: mice; conditions: cited from earlier work
[5] = test system: neural stem cells; assay: In vitro differentiation assay on adult neural stem cells (beta-III-tubulin promoter firefly/Renilla dual luciferase reporter); assay type: cell-based, rat
From the text: The neuroregenerative effect of the compounds according to the present invention can be assayed in vitro by measuring their stimulation of the differentiation of neural stem cells. Therefore, adult neural stem cells have to be isolated and subsequently cultivated in a suitable culture medium. After several passages in vitro the stem cells have to be co-transfected with a DNA construct coding for two discriminable reporter proteins one of them under the control of a constitutive promoter and the other under the control of a beta-III-tubulin promoter. The beta-III-tubulin promoter is induced during the process of neural stem cell differentiation; therefore the reporter protein under the control of this promoter serves as a marker for the stem cell differentiation in such an in vitro dual reporter assay (Schneider et al., J Clin Investigation 2005; 115:2083-2098). The person skilled in the art knows several suitable constitutive promoters such as the SV40-promoter, the TK-promoter, or the CMV-promoter. As discriminable reporter proteins for such a dual reporter assay one can use discriminable luciferases such as firefly luciferase and Renilla luciferase. The transfected cells have to be incubated with the test compound and with a positive and negative controls for normalization and background correction. As a positive control compound one can use retinoic acid (Guan et al., Cell Tissue Res. 2001; 305:171-176; Jacobs et al., Proc. Natl. Acad. Sci. USA 2006; 103:3902-3907), a suitable negative control is the sham treatment of the cells. The neroregenerative activity of the test compound is determined as the ratio of the signal of the beta-III-tubulin promoter controlled reporter versus the signal of the constitutively expressed reporter and is expressed as fold from the control. This assay is suitable to assess the neuroregenerative activity of piperine and derivatives thereof, but also can be used to screen for other potential neuroregenerative compounds. Preferably, such a screening can be used to test compounds which are already known to be suitable as a medicament in terms of its toxicology, bioavailability, solubility, stability etc.
Neural stem cells were isolated from the subventricular zone of 4 week-old male Wistar rats as described (Maurer et al, Proteome Sci. 2003; 1:4). Cells were cultivated in Neurobasal medium (Invitrogen) supplemented with B27 (Invitrogen), 2 mM L-glutamine, 100 units/ml penicillin, 100 units/ml streptomycin, 20 ng/ml […] (EGF), 20 ng/ml fibroblast growth factor-2 (FGF-2), and 2 μg/ml heparin. Once a week the neural stem cells were passaged and experiments were performed after 4 weeks in vitro. For DNA transfection, the cells were dissociated and plated on poly-L-ornithin/laminin-coated 96-well plates at a density of 50.000 cells/well. Cotransfection with the pGL3-p-βIII-tubulin vector (100 ng/well) and the pRL SV40 vector (100 ng/well) was carried out according to the FuGene6 Transfection protocol (Roche). The pRL SV40 vector (Promega) served as an internal control vector.
To amplify the class III β-tubulin gene promoter (fragment −450-+54), rat genomic DNA was used as a template for PCR (Dennis et al., Gene 2002; 294:269-277). The amplified fragment was inserted into the Mlu I/Xho I site of the pGL3-Basic firefly luciferase reporter vector (Promega) to generate the pGL3-p-βIII-tubulin experimental vector.
After overnight incubation, the plate was decanted and given in 8-fold replicates fresh medium containing piperine (Sigma) or vehicle. As a positive control for in vitro differentiation, stem cells were treated by adding 1 μM retinoic acid (Sigma) to the medium missing the mitogens.
After 48 hrs, the cells were harvested to prepare the cellular extracts for luciferase assay following the directions of the manufacturer (Promega). […]

[6] = cited from earlier work
[7] = test system: rat MCAO model; assay: Rat MCAO (filament) model for stroke, infarct volume by TTC staining

In the case of `O=C(/C=C/C=C/c1ccc2c(c1)OCO2)N1CCCCC1` [Piperine, (E,E)-1-[5-(1,3-benzodioxol-5-yl)-1-oxo-2,4-pentadienyl]piperidine], the “degree of apoptosis relative to the staurosporine control” value [1] is reported as 70%, the “degree of apoptosis relative to the staurosporine control” value ([2]; compound 1 μM in the presence of staurosporine 0.1 μM, SH-SY5Y) is reported as 66% and the “reduction of the staurosporine induced apoptosis” value ([2]; piperine 100 μM to 10 μM with staurosporine 0.1 μM, 5 h) is reported as “significant reduction”. The “apoptotic effect by themselves” value ([2]; without staurosporine) was “neither piperine nor derivatives thereof exhibited an apoptotic effect by themselves”, the anti-inflammatory activity [3] was “significant anti-inflammatory activity” and the “seizure activity induced by L-glutamate, N-methyl-D-aspartate or guanidinosuccinate” value [4] was “did not significantly block seizure activity”. The “clonic convulsions induced by kainate” value ([4]; injected intra-peritoneally) was “inhibited clonic convulsions”, the “differentiation of neural stem cells to neurons, dose dependence” value ([5]; 0.2 μM up to 25, 50 or 100 μM, compared with sham and 1 μM retinoic acid) was “significantly stimulates” and the fold induction at 1 µM ([5]; Rattus norvegicus, Neural stem cell, 1 μM final compound concentration, in comparison to sham treatment, read-out: Stimulation factor for differentiation of neural stem cells) was 2.1. For the same compound, the “maximum concentration in rat brain tissue” value ([6]; i.v. bolus of 50 mg/kg) was “about 4 μg/ml”, the “passage of the blood-brain-barrier” value ([6]; rat, in vivo) was “passes the intact blood-brain-barrier” and the “total edema-corrected infarct size” value ([7]; 10 mg/kg i.v. 30 min after onset of occlusion, 24 h, mean ± SEM, n=30, p=0.031 vs vehicle) was 151±17 mm^3. The “edema-corrected infarct volume, subcortical areas” value ([7]; 10 mg/kg i.v. 30 min after onset of occlusion, 24 h, mean ± SEM, not statistically significant) was 78±6 mm^3, the “edema-corrected infarct volume, cortex” value ([7]; 10 mg/kg i.v. 30 min after onset of occlusion, 24 h, mean ± SEM, p=0.018 vs vehicle) was 73±14 mm^3 and the “tolerability of the treatment” value ([7]; 10 mg/kg i.v., rat) was “well tolerated”.
